Reference: ChEMBL document CHEMBL1157358, “Comparative study of the effects of pyridoxine, rifampin, and renal function on hematological adverse events induced by linezolid” (Antimicrob Agents Chemother, 2007)
Values after ≈ are worked out from the molar mass of the structure shown. Active and inactive are the calls of the source. The calls are words filed in the database; no cut-off is given here.

Experiments:
Homo sapiens [1] = test: Inhibition of linezolid-induced hematological events in orthopedic implant infection patient assessed as effect on anemia at 200 mg, po once daily; format: functional, organism-based
Homo sapiens [2] = species on record: Homo sapiens; test: Inhibition of linezolid-induced hematological events in bone infection patient assessed as rate of anemia at 125 mg relative to control; format: functional; set-up: scale not given: the % may be the effect or the level left
Homo sapiens [3] = test: Inhibition of linezolid-induced hematological events in orthopedic implant infection patient assessed as effect on thrombocytopenia at 200 mg, po once daily; format: functional, organism-based
Homo sapiens [4] = species on record: Homo sapiens; test: Inhibition of linezolid-induced hematological events in bone infection patient assessed as rate of thrombocytopenia at 125 mg relative to control; format: functional; set-up: scale not given: the % may be the effect or the level left
Homo sapiens [5] = species on record: Homo sapiens; test: Inhibition of linezolid-induced hematological events in orthopedic implant infection patient assessed as thrombocytopenia incidence relative to control; format: functional; set-up: scale not given: the % may be the effect or the level left
Homo sapiens [6] = species on record: Homo sapiens; test: Inhibition of linezolid-induced hematological events in orthopedic implant infection patient assessed as reduction of anemia incidence relative to control; format: functional, organism-based
Staphylococcus = test: Antibacterial activity against coagulase-negative Staphylococcus; format: functional
[7] = tested on: mitochondrial protein synthesis; test: Toxicity in rat heart mitochondria assessed as inhibition of mitochondrial protein synthesis; details: pooled result: one value given for 4 cell lines, strains, targets or settings
Enterococcus = test: Antibacterial activity against Enterococcus; format: functional
[8] = AUC in human at 600 mg administered every 12 hrs measured after 24 hrs; format: ADME, organism-based; set-up: time < 24 hr, dose 600 mg; details: plasma
Staphylococcus aureus = test: Antibacterial activity against Staphylococcus aureus; format: functional
[9] = Drug level at steady state in human serum at 600 mg administered every 12 hrs; format: ADME, cell-free; details: read-out: Drug uptake
Streptococcus = test: Antibacterial activity against Streptococcus; format: functional

SMILES: Cc1ncc(CO)c(CO)c1O [PYRIDOXINE]
- Activity (Homo sapiens [1]): inactive
- Activity (Homo sapiens [2]): 25%
- Activity (Homo sapiens [3]): inactive
- Activity (Homo sapiens [4]): 45.8%

SMILES: CO[C@H]1/C=C/O[C@@]2(C)Oc3c(C)c(O)c4c(O)c(c(/C=N/N5CCN(C)CC5)c(O)c4c3C2=O)NC(=O)/C(C)=C\C=C\[C@H](C)[C@H](O)[C@@H](C)[C@@H](O)[C@@H](C)[C@H](OC(C)=O)[C@@H]1C [RIFAMPIN]
- Activity (Homo sapiens [5]): 5.8%
- Activity (Homo sapiens [6]): Active

SMILES: CC(=O)NC[C@H]1CN(c2ccc(N3CCOCC3)c(F)c2)C(=O)O1 [LINEZOLID]
- MIC (Staphylococcus): 0.5 µg/mL (≈ 1.48 µM)
- IC50 [7]: 3.37 µg/mL (≈ 9.99 µM)
- MIC (Enterococcus): 0.5 µg/mL (≈ 1.48 µM)
- AUC at 24 h [8]: 260 µg·h/mL
- MIC (Staphylococcus aureus): 0.5 µg/mL (≈ 1.48 µM)
- concentration at 12 h [9]: 6000 ng/mL
- MIC (Streptococcus): 0.5 µg/mL (≈ 1.48 µM)
